Active and inactive are the calls of the source.
How the values were obtained:
A-375 [1] = assay: A375 melanoma cell viability reduction, dose response, counter-screen for MITF modulator project, cherry-pick samples, set 2 (AID 540335); assay type: functional, cell-based; settings: Homo sapiens
A-375 [2] = assay: MITF: Counter assay: A375 proliferation Measured in Cell-Based System Using Plate Reader - 2084-03_Inhibitor_Dose_DryPowder_Activity. [Related pubchem assays (depositor defined):AID488944]; assay type: functional; settings: Homo sapiens
CAAX prenyl protease 2 [3] = target: T1, CAAX prenyl protease 2 (Saccharomyces cerevisiae S288c, UniProt Q03530); assay type: biochemical
T1 sequence (Q03530 whole entry): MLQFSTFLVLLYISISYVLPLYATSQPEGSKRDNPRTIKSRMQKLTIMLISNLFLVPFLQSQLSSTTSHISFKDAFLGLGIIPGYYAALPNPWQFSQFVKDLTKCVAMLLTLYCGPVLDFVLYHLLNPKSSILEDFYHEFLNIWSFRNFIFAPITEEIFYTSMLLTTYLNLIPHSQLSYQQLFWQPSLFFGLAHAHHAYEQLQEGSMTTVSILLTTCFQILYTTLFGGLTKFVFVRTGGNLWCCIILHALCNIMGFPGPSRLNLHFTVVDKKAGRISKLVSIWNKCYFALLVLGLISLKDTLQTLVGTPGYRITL

CAAX prenyl protease 1 = CAAX prenyl protease 1 (Saccharomyces cerevisiae S288c, UniProt P47154); assay: Ste24 protease inhibitors, dose response, biochemical, S. cerevisiae, plate reader, cherry-pick (AID 488815)
CAAX prenyl protease 2 [4] = target: CAAX prenyl protease 2 (Homo sapiens, UniProt Q9Y256); assay: human Rce1 protease inhibitors, dose response, biochemical, yeast membranes, quenched-peptide fluorescence, cherry-pick (AID 588849)
[5] = target: T2, Tyrosine-protein phosphatase non-receptor type 7 (Homo sapiens, UniProt P35236); assay type: functional
T2 sequence (P35236 whole entry): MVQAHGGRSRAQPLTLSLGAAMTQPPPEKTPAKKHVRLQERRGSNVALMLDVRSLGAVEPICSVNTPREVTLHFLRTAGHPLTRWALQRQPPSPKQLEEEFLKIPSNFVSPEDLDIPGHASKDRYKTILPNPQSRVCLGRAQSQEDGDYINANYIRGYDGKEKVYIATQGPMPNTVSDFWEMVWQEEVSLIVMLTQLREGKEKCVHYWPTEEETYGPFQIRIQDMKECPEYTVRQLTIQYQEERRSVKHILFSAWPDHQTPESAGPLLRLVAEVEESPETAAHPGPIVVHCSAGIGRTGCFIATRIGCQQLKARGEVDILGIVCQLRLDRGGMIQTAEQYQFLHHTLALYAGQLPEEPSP

[6] = target: T3, Dual specificity protein phosphatase 6 (Rattus norvegicus, UniProt Q64346); assay type: functional
T3 sequence (Q64346 whole entry): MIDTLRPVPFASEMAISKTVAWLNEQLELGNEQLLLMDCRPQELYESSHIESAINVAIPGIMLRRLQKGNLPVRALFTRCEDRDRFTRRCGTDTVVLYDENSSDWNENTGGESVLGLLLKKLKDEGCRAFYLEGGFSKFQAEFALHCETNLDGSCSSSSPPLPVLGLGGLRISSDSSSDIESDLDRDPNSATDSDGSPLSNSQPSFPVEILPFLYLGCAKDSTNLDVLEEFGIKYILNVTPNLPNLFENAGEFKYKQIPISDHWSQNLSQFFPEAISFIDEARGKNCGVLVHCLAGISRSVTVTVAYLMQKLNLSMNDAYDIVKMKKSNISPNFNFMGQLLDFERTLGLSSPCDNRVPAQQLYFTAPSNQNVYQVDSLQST

[7] = target: T3, Dual specificity protein phosphatase 6
[8] = target: Glyceraldehyde-3-phosphate dehydrogenase (Homo sapiens, UniProt P04406)
[9] = target: T4, Endoribonuclease toxin MazF (Escherichia coli K-12, UniProt P0AE70); assay: fluorescent RNA oligo signal without MazF, dose response, counter-screen for MazEF activator project, biochemical, fluorescence, single-stranded RNase substrate (AID 588502); assay type: functional
T4 sequence (P0AE70 whole entry): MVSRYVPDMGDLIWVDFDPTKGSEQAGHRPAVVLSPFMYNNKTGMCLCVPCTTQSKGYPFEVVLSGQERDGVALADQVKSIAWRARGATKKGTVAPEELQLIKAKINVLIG

[10] = target: UDP-galactopyranose mutase (Mycobacterium tuberculosis, UniProt P9WIQ1); assay: Inhibitors of Mycobacterium tuberculosis UDP-galactopyranose mutase (UGM) enzyme Measured in Biochemical System Using Plate Reader - 2105-02_Inhibitor_Dose_CherryPick_Activity. [Related pubchem assays (depositor defined):AID504439]
[11] = target: T5, RNA-binding protein pos-1 (Caenorhabditis elegans, UniProt G5EF15); assay: inhibitors of POS-1/mex-3 RNA binding, dose response, biochemical, fluorescence polarization (AID 1964);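 further: purified POS-1 fused to maltose binding protein made in E. coli; potency of compounds blocking POS-1 binding to fluorescent RNA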
T5 sequence (G5EF15 whole entry): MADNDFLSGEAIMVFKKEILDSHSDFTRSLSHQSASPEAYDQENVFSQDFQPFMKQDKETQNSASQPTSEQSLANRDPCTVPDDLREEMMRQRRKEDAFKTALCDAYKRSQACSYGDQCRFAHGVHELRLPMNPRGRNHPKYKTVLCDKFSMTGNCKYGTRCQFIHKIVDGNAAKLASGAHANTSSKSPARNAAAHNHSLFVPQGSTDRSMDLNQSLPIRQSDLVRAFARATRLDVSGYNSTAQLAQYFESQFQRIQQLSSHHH

[12] = target: T6, Corticotropin-releasing factor receptor 2/Corticotropin-releasing factor-binding protein (Homo sapiens, UniProt P24387+Q13324); assay: activators of CRF receptor 2 with binding protein – uHTS hits, confirmation (AID 602473); assay type: functional; settings: read-out: EC50_Mean
T6 sequence (Q13324 whole entry): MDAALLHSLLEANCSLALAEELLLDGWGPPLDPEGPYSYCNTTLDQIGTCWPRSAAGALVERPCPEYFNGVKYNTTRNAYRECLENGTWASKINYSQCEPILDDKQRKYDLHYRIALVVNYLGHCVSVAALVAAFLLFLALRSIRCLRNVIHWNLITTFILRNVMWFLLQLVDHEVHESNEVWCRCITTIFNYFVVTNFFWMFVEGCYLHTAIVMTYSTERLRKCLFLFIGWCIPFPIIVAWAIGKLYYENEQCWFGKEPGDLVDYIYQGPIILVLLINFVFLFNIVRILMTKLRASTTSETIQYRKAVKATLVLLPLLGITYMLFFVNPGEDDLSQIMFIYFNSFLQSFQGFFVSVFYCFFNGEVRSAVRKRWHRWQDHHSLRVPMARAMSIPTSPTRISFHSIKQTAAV
T6 sequence (P24387 whole entry): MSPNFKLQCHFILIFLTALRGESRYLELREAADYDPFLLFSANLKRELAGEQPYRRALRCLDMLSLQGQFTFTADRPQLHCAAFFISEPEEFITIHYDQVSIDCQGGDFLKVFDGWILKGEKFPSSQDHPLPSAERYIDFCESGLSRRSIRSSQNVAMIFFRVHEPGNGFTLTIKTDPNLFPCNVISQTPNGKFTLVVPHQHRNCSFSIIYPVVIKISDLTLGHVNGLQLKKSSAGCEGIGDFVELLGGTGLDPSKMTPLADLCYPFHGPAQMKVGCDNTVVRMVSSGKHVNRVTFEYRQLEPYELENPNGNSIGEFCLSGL

[13] = target: T4, Endoribonuclease toxin MazF; assay: MazF toxin RNase activators, dose response, biochemical, fluorescence, single-stranded RNA substrate, uHTS hits (AID 588481); assay type: functional
[14] = target: T7, Zinc finger protein mex-5 (Caenorhabditis elegans, UniProt Q9XUB2); assay: MEX-5/TCR-2 RNA interaction inhibitors, dose response, biochemical, C. elegans, fluorescence polarization (AID 1960)
T7 sequence (Q9XUB2 whole entry): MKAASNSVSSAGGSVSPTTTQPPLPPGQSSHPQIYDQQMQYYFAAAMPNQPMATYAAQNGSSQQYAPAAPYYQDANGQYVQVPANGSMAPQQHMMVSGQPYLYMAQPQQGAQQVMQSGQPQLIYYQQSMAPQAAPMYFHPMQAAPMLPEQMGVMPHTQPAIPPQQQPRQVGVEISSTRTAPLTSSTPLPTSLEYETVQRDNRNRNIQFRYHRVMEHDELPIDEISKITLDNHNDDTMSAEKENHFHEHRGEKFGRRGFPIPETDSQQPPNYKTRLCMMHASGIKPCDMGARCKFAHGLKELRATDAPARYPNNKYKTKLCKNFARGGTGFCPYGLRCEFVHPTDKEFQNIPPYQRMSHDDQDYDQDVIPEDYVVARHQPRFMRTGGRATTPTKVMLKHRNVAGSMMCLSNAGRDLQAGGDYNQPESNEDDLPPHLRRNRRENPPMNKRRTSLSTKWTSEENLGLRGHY

[15] = target: T8, Short transient receptor potential channel 4 (Mus musculus, UniProt Q9QUQ5); assay: mouse TRPC4 channel inhibitors, dose response, cell-based, HEK293 TRPC4/mu-opioid, Fluo-4 calcium (AID 434942); assay type: functional;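 further: potency of inhibitors blocking the TRPC4 calcium response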
T8 sequence (Q9QUQ5 whole entry): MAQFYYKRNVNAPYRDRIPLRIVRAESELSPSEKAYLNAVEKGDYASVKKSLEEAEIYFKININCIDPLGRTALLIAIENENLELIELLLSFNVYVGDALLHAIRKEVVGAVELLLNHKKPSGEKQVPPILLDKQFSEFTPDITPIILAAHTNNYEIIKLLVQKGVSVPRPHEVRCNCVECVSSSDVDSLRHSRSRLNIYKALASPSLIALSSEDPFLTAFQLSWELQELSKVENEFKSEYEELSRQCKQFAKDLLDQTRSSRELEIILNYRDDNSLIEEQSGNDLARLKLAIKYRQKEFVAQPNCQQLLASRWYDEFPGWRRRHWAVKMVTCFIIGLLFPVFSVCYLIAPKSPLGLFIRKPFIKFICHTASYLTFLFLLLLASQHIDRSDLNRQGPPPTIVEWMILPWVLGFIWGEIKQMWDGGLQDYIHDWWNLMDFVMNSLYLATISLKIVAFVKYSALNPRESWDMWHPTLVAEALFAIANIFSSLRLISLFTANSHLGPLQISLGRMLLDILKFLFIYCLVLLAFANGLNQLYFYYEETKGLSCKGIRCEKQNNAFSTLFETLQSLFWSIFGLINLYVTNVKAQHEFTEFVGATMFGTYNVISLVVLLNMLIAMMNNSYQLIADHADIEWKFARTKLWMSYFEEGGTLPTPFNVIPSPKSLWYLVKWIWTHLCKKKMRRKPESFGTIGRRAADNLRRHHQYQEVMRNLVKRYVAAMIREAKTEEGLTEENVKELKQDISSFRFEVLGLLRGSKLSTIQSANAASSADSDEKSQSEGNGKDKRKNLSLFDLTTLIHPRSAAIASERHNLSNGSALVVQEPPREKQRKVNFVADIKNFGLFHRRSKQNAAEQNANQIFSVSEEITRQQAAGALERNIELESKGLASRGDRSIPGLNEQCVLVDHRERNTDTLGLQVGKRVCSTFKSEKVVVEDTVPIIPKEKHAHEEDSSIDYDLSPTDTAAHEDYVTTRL

[16] = target: T8, Short transient receptor potential channel 4; assay: mouse TRPC4 channel activators, dose response, cell-based, HEK293 TRPC4/mu-opioid, Fluo-4 calcium (AID 434937); assay type: functional
[17] = cytotoxicity in HEK-293T NF-kB-Luc cells, dose response, cytotoxicity control for B/T-cell NF-kB inhibitor project, cell-based, uHTS hits (AID 489019); assay type: functional;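 further: IC50 reflects cytotoxicity as loss of cell viability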
Jurkat = assay: antigen receptor-induced NF-kB inhibitors, dose response, Jurkat, luciferase reporter, luminescence, B- and T-cell (AID 489004); assay type: functional, cell-based; settings: Homo sapiens;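 further: NF-kB luciferase reporter Jurkat cells stimulated with PMA plus ionomycin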
INS1 = assay: beta cell apoptosis inhibitors, cytokine rescue, dose response, luminescence, retest (AID 449756); assay type: functional, cell-based; settings: Rattus norvegicus;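 further: cell death triggered by IL-1 beta plus TNF-alpha plus IFN-gamma mixture; protective hits raise ATP signal compared with cytokine alone wells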
[18] = inhibitors of Trypanosoma cruzi host-cell infection, confirmation, beta-gal luminescence, NIH3T3 host cells (AID 2630); assay type: functional, cell-based; settings: Mus musculus

CAAX prenyl protease 1, sequence (P47154 whole entry): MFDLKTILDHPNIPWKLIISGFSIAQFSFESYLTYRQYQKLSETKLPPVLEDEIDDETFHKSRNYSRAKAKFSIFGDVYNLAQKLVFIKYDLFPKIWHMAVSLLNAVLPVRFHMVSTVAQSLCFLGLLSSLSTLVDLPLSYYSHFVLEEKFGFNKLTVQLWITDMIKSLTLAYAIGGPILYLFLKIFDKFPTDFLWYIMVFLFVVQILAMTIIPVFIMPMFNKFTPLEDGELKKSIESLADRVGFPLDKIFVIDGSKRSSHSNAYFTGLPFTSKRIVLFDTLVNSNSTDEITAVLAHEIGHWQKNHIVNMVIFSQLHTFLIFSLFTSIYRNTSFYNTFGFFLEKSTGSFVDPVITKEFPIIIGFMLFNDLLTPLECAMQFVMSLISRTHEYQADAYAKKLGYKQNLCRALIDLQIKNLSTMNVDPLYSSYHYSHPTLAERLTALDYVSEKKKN
CAAX prenyl protease 2 (Homo sapiens, UniProt Q9Y256), sequence (Q9Y256 whole entry): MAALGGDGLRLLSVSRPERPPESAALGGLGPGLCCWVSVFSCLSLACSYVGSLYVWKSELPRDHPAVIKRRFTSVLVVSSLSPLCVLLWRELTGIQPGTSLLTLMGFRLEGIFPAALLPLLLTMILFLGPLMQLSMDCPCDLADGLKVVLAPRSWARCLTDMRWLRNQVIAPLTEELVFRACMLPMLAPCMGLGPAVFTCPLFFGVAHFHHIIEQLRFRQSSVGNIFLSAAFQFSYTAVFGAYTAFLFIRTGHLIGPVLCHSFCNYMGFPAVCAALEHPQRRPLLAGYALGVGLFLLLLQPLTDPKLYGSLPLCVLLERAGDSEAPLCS
UDP-galactopyranose mutase, sequence (P9WIQ1 whole entry, the tested form may be a part): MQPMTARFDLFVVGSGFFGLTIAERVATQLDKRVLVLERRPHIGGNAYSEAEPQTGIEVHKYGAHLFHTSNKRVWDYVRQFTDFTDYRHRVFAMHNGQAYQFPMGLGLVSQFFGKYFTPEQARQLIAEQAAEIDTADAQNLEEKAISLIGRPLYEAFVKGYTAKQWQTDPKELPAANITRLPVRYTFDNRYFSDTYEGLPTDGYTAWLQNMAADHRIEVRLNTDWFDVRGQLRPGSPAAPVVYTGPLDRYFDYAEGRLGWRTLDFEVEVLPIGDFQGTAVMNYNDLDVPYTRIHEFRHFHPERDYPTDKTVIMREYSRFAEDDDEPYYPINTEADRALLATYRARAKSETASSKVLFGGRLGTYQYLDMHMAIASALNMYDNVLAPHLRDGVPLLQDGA
Glyceraldehyde-3-phosphate dehydrogenase, sequence (P04406 whole entry): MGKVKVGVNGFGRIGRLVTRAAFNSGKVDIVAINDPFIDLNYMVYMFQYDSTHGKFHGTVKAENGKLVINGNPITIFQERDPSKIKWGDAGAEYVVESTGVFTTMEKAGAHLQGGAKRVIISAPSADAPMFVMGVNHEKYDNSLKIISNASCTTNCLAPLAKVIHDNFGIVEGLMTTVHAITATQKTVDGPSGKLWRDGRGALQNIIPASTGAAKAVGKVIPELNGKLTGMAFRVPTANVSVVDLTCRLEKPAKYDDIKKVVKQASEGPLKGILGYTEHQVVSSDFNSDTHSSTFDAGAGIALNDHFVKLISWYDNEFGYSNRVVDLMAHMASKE

For O=C(Nc1ccc2nn(-c3ccccc3)nc2c1)c1ccco1, the AC50 (A-375 [1]) was > 35 µM (active) and the AC50 (A-375 [2]) was > 35 µM (active).
In the case of CCOC(=O)c1[nH]c2ccc(OC)cc2c1NC(=O)CN1CCC2(CC1)OCCO2, the AC50 (CAAX prenyl protease 2 [3]) is reported as 67.8 µM (active), the AC50 (CAAX prenyl protease 1) is reported as 6.79 µM (active) and the AC50 (CAAX prenyl protease 2 [4]) is reported as 15.4 µM (active).
For Cc1ccc(-n2c(=O)[nH]c(=O)n([C@H](C(N)=O)C(C)C)c2=O)cc1, the IC50 [5] was > 100 µM (not active), the IC50 [6] was > 100 µM (inactive) and the IC50 [7] was > 100 µM (inactive). For the same compound, the IC50 [8] was > 100 µM (not active).
In the case of O=C(Nc1ccc(Cl)cc1)OCc1ccccn1, the AC50 (A-375 [1]) is reported as > 35 µM (active) and the AC50 (A-375 [2]) is reported as > 35 µM (active).
In the case of COc1ccc2nc3ccccc3nc2c1NC(=O)c1ccc(Cl)cc1Cl, the EC50 [9] is reported as 27.6 µM (inactive), the AC50 [10] is reported as 171 µM (active) and the EC50 [11] is reported as 3.15 µM (inconclusive). The EC50 [12] was 6.99 µM (active), the EC50 [13] was > 99 µM (inactive) and the EC50 [14] was 3.71 µM (inconclusive).
For O=C(C[n+]1cc2ccccc2c2ccccc21)c1ccccc1, the EC50 [15] was 3.76 µM (active), the EC50 [16] was 4.22 µM (active) and the AC50 (CAAX prenyl protease 2 [3]) was 5.91 µM (active). For the same compound, the AC50 (CAAX prenyl protease 1) was 10.2 µM (active).
In the case of Cc1cc(Cl)c(S(=O)(=O)N2CCN(c3ccc(F)cc3)CC2)cc1OCC(=O)NC1CCCCC1, the IC50 [17] is reported as > 80 µM (inactive), the IC50 (Jurkat) is reported as > 80 µM (inactive) and the AC50 (INS1) is reported as 4.82 µM (active).
With Cc1ccc(NC(=O)CCC(=O)N/N=C/c2ccco2)c(C)c1 the EC50 [18] was 195 µM (inactive).
In the case of O=S(=O)(O)c1cc2oc(-c3ccccc3)nc2c2ccccc12, the AC50 (CAAX prenyl protease 2 [4]) is reported as 1.35 µM (active).
